Test results taken from patent US20060046966A1, “Antipicornaviral compounds and compositions, their pharmaceutical uses, and materials for their synthesis” (Agouron Pharmaceuticals, Inc., priority 1998, published 2006).
Read-outs that look alike come from different tables or passages of the source.

Columns and labels:
[1] = target: T1, rhinovirus 3C protease from HRV serotype-14 (Human rhinovirus 14, UniProt P03303); experiment: Inhibition of rhinovirus 3C protease (FRET assay), serotype 14; format: biochemical; details: HRV serotype-14 3C protease, progress curves in enzyme start experiments; for kinact/KI: read-out: Protease Inhibition kobs/[I]
T1 construct: Recombinant rhinovirus 3C proteases; made in house
T1 sequence (P03303 1538-1719): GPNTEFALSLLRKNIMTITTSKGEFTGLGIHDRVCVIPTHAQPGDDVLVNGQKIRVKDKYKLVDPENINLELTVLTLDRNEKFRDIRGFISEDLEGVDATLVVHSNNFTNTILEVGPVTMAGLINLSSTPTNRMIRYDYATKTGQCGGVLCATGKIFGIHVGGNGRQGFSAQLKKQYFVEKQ
Experimental: Stock solutions (50 mM, in DMSO) of various compounds were prepared; dilutions were in the same solvent. Recombinant rhinovirus 3C proteases (see Birch et al., “Purification of recombinant human rhinovirus 14 3C protease expressed in Escherichia coli,” Protein Expr. Pur. 1995, 6(5), 609-618) from serotypes 14, 16, and 2 were prepared by the following standard chromatographic procedures: (1) ion exchange using Q Sepharose Fast Flow from Pharmacia; (2) affinity chromatography using Affi-Gel Blue from Biorad; and (3) sizing using Sephadex G-100 from Pharmacia. Each assay sample contained 2% DMSO, 50 mM tris pH 7.6, 1 mM EDTA, a test compound at the indicated concentration, approximately 1 μM substrate, and 50-100 nM protease. The kobs/I values were obtained from reactions initiated by addition of enzyme rather than substrate. RVP activity was measured in the fluorescence resonance energy transfer assay. The substrate was (N-terminal) DABCYL-(Gly-Arg-Ala-Val-Phe-Gln-Gly-Pro-Val-Gly)-EDANS. In the uncleaved peptide, the EDANS fluorescence was quenched by the proximal DABCYL moiety. When the peptide was cleaved, the quenching was relieved, and activity was measured as an increase in fluorescence signal. In Table 1, all data are for rhinovirus 3C protease from HRV serotype-14 (produced from the infectious cDNA clone constructed by Dr. Robert Rueckert, Institute for Molecular Virology, University of Wisconsin, Madison, Wis.). […] The data in the column designated kobs/[I] were measured from progress curves in enzyme start experiments.

HRV-14 = experiment: Antirhinoviral H1-HeLa cell culture assay, HRV-14; format: cell-based, human rhinovirus; details: HRV serotype-14, H1-HeLa cells
Experimental: In this cell protection assay, the ability of compounds to protect cells against HRV infection was measured by the XTT dye reduction method, which is described in Weislow et al., J. Natl. Cancer Inst. 1989, vol. 81, 577-586.
(§1) H1-HeLa cells were infected with HRV-14 at a multiplicity of infection (m.o.i.) of 0.13 (virus particles/cell) or mock-infected with medium only. Infected or mock-infected cells were resuspended at 8×10^5 cells per mL, and incubated with appropriate concentrations of the compounds to be tested. Two days later, XTT/PMS was added to test plates and the amount of formazan produced was quantified spectrophotometrically at 450/650 nm. The EC50 value was calculated as the concentration of compound that increased the percentage of formazan production in compound-treated, virus-infected cells to 50% of that produced by compound-free, mock-infected cells. The 50% cytotoxic dose (CC50) was calculated as the concentration of compound that decreased the percentage of formazan produced in compound-treated, mock-infected cells to 50% of that produced by compound-free, mock-infected cells. The therapeutic index (TI) was calculated by dividing the CC50 value by the EC50 value.
(§2) All strains of human rhinovirus (HRV) for use in this assay were purchased from American Type Culture Collection (ATCC), except for HRV serotype-14 (produced from the infectious cDNA clone constructed by Dr. Robert Rueckert, Institute for Molecular Virology, University of Wisconsin, Madison, Wis.). HRV stocks were propagated and viral assays were performed in H1-HeLa cells (ATCC). Cells were grown in minimal essential medium with 10% fetal bovine serum, available from Life Technologies (Gaithersburg, Md.).
The compounds were tested against control compounds WIN 51711, WIN 52084, and WIN 54954 (obtained from Sterling-Winthrop Pharmaceuticals), Pirodavir (obtained from Janssen Pharmaceuticals), and Pleconaril (prepared according to the method described in Diana et al., J. Med. Chem 1995, vol. 38, 1355). Antiviral data obtained for the test compounds are shown in Tables 1 and 3, where all data are for HRV serotype-14 unless otherwise noted in parentheses.

[2] = Cytotoxicity in mock-infected H1-HeLa cells (antirhinoviral assay, XTT); format: cell-based; details: human, 50% cytotoxic dose, two days
Experimental: as §1, §2

[3] = Rhinovirus B, HRV14, H1-HeLa, Table 1, XTT dye reduction, read-out: Cell Protection EC50
[4] = Rhinovirus B, HRV14, H1-HeLa, Table 3, XTT, read-out: EC50

| Molecule | kinact/KI [1] | EC50 (HRV-14; [3]) | EC50 (HRV-14; [4]) | CC50 at 2 days [2] | Protease Inhibition kobs/[I] [1] | EC50 (HRV-14; Table 1, XTT dye reduction, read-out: Cell Protection EC50) | EC50 (HRV-14; Table 3, XTT, read-out: EC50) |
| --- | --- | --- | --- | --- | --- | --- | --- |
| CC(C)C[C@H](NC(=O)OCc1ccccc1)C(=O)N[C@@H](Cc1ccccc1)C(=O)N[C@H](/C=C/c1ccno1)CCC(N)=O [Comparison Compound #1, 5-(3′-(Cbz-L-Leu-L-Phe-L-Gln)-E-Propene)-isoxazole, reference compound] | 573 M⁻¹ s⁻¹ | > 320 µM | > 320 µM | – | – | – | – |
| CCOC(=O)/C=C/[C@H](CCC(N)=O)NC(=O)[C@H](Cc1ccc(C)cc1)NC(=O)[C@@H](NC(=O)c1cc(C)on1)C(C)(C)C [Compound A-3, Ethyl-3-((5′-Methylisoxazole-3′-carbonyl)-L-α-(t-Butyl-Gly)-L-(4-Me-Phe)-L-Gln)-E-Propenoate] | 310000 M⁻¹ s⁻¹ | 0.05 µM | 0.05 µM | – | – | – | – |
| CCOC(=O)/C=C/[C@H](CCC(N)=O)NC(=O)[C@H](Cc1ccc(F)cc1)NC(=O)[C@@H](NC(=O)c1cc(C)on1)C(C)(C)C [Compound A-4, Ethyl-3-((5′-Methylisoxazole-3′-carbonyl)-L-α-(t-Butyl-Gly)-L-(4-F-Phe)-L-Gln)-E-Provenoate] | 270000 M⁻¹ s⁻¹ | 0.1 µM | 0.1 µM | – | – | – | – |
| CCOC(=O)/C=C/[C@H](CCC(N)=O)NC(=O)[C@H](Cc1ccc(F)cc1)NC(=O)[C@@H](NC(=O)c1cc(C)on1)C(C)C [Compound A-6, Ethyl-3-[(5′-Methylisoxazole-3′-carbonyl)-L-Val-L-(4-F-Phe)-L-Gln]-E-Propenoate] | 248000 M⁻¹ s⁻¹ | 0.42 µM | 0.42 µM | – | – | – | – |
| CCOC(=O)/C=C/[C@H](C[C@@H]1CCCNC1=O)NC(=O)[C@H](Cc1ccc(F)cc1)NC(=O)[C@@H](NC(=O)c1cc(C)on1)C(C)C [Compound A-8, Ethyl-3-[(5′-Methylisoxazole-3′-carbonyl)-L-Val-L-(4-F-Phe)-L-((S)-Piper-Ala)}-E-Propenoate] | 900000 M⁻¹ s⁻¹ | – | – | – | – | – | – |
| CCOC(=O)/C=C/[C@H](CCC(N)=O)NC(=O)[C@H](Cc1ccc(F)cc1)N(C)C(=O)[C@H](Cc1c[nH]cn1)NC(=O)c1cc(C)on1 [Compound A-9, Ethyl-3-{(5′-Methylisoxazole-3′-carbonyl)-L-His-NCH3-L-(4-F-Phe)-L-Gln}-E-Propenoate] | 66000 M⁻¹ s⁻¹ | 1.8 µM | 1.8 µM | – | – | – | – |
| CCOC(=O)/C=C/[C@H](CCC(N)=O)NC(=O)[C@H](Cc1ccc(F)cc1)N(C)C(=O)[C@H](Cc1ccc2ccccc2c1)NC(=O)c1cc(C)on1 [Compound A-11, Ethyl-3-{(5′-Methylisoxazole-3′-carbonyl)-L-(2-Naphth)-NCH3-L-(4-F-Phe)-L-Gln}-E-Propenoate] | 108000 M⁻¹ s⁻¹ | 0.03 µM | 0.03 µM | – | – | – | – |
| CCOC(=O)/C=C/[C@H](CCC(N)=O)NC(=O)[C@H](Cc1ccc(F)cc1)N(C)C(=O)[C@H](CC(C)C)NC(=O)c1cc(C)on1 [Compound A-12, Ethyl-3-{(5′-Methylisoxazole-3′-carbonyl)-L-Leu-NCH3-L-(4-F-Phe)-L-Gln}-E-Propenoate] | 59300 M⁻¹ s⁻¹ | 0.4 µM | 0.4 µM | – | – | – | – |
| CCOC(=O)/C=C/[C@H](CCC(N)=O)NC(=O)[C@H](Cc1ccc(F)cc1)N(C)C(=O)[C@H](Cc1cccc2ccccc12)NC(=O)c1cc(C)on1 [Compound A-13, Ethyl-3-{(5′-Methylisoxazole-3′-carbonyl)-L-(1-Naphth)-NCH3-L-(4-F-Phe)-L-Gln}-E-Propenoate] | 95800 M⁻¹ s⁻¹ | 0.2 µM | 0.2 µM | – | – | – | – |
| CCOC(=O)/C=C/[C@H](CCC(N)=O)NC(=O)[C@H](Cc1ccccc1)NC(=O)[C@@H](NC(=O)c1cccs1)C(C)(C)C [Compound A-14] | 54500 M⁻¹ s⁻¹ | 0.48 µM | 0.48 µM | > 100 µM | – | – | – |
| CC(C)[C@H](NC(=O)C1SCCS1)C(=O)N[C@@H](Cc1ccc(F)cc1)C(=O)N[C@H](/C=C/C(=O)OCc1cccnc1)CCC(N)=O [Compound A-18] | 292000 M⁻¹ s⁻¹ | 1.5 µM | 1.5 µM | > 100 µM | – | – | – |
| CCOC(=O)/C=C/[C@H](CCC(N)=O)NC(=O)[C@H](Cc1ccccc1)NC(=O)[C@H](CC(C)C)NC(=O)[C@@H]1C=CCN1 [Compound A-19] | 27800 M⁻¹ s⁻¹ | 25.1 µM | 25.1 µM | > 100 µM | – | – | – |
| CCOC(=O)/C=C/[C@H](CCC(N)=O)NC(=O)[C@H](Cc1ccccc1)NC(=O)[C@H](CC(C)C)NC(=O)c1cc(C)oc1C [Compound A-20] | 1020 M⁻¹ s⁻¹ | 12.6 µM | 12.6 µM | > 100 µM | – | – | – |
| CCOC(=O)/C=C/[C@H](CCC(N)=O)NC(=O)[C@H](Cc1ccccc1)NC(=O)[C@H](CC(C)C)NC(=O)c1cc(C)[nH]n1 [Compound A-22] | 2400 M⁻¹ s⁻¹ | – | – | – | – | – | – |
| CCOC(=O)/C=C/[C@H](CCC(N)=O)NC(=O)[C@H](Cc1ccccc1)NC(=O)[C@H](CC(C)C)NC(=O)c1cc(C)cs1 [Compound A-23] | 26000 M⁻¹ s⁻¹ | – | – | – | – | – | – |
| CCOC(=O)/C=C/[C@H](C[C@@H]1CCNC1=O)NC(=O)[C@H](Cc1ccccc1)NC(=O)[C@@H](NC(=O)OCc1ccccc1)C(C)C [Compound A-25, Ethyl-3-{Cbz-L-Val-L-Phe-L-((S)-Pyrrol-Ala)}-E-Propenoate] | 500000 M⁻¹ s⁻¹ | 0.03 µM | 0.03 µM | – | – | – | – |
| CCOC(=O)/C=C/[C@H](C[C@@H]1CCCNC1=O)NC(=O)[C@H](Cc1ccccc1)NC(=O)[C@H](CC(C)C)NC(=O)OCc1ccccc1 [Compound A-26, Ethyl-3-{Cbz-L-Leu-L-Phe-L-((S)-Piper-Ala)}-E-Provenoate] | 239000 M⁻¹ s⁻¹ | 0.03 µM | 0.03 µM | – | – | – | – |
| CCOC(=O)/C=C/[C@H](C[C@H]1CCNC1=O)NC(=O)[C@H](Cc1ccccc1)NC(=O)[C@H](CC(C)C)NC(=O)OCc1ccccc1 [Compound A-27, Ethyl-3-{Cbz-L-Leu-L-Phe-L-((R)-Pyrrol-Ala)}-E-Propenoate] | 18000 M⁻¹ s⁻¹ | 1.6 µM | 1.6 µM | – | – | – | – |
| Cc1cc(C(=O)N[C@H](C(=O)C[C@@H](Cc2ccc(F)cc2)C(=O)N[C@H](/C=C2\CCOC2=O)C[C@@H]2CCNC2=O)C(C)C)no1 [Compound B-3, 2-{(5′-Methylisoxazole-3′-carbonyl)-L-ValΨ(COCH2)-L-(4-F-Phe)-L-((S)-Pyrrol-Ala)}-E-(α-Vinyl-γ-Butyrolactone)] | 465000 M⁻¹ s⁻¹ | 0.18 µM | 0.18 µM | – | – | – | – |
| CCOC(=O)/C=C/[C@H](C[C@@H]1CCCNC1=O)NC(=O)[C@@H](CC(=O)[C@@H](NC(=O)c1cc(C)on1)C(C)C)Cc1ccc(F)cc1 [Compound B-4, Ethyl-3-[(5′-Methylisoxazole-3′-carbonyl)-L-ValΨ(COCH2)-L-(4-F-Phe)-L-((S)-Piper-Ala)}-E-Propenoate] | 500000 M⁻¹ s⁻¹ | < 0.03 µM | < 0.03 µM | – | – | – | – |
| CCOC(=O)/C=C/[C@H](CCC(N)=O)NC(=O)[C@H](Cc1ccc(F)cc1)OC(=O)[C@@H](NC(=O)c1cc(C)on1)C(C)C [Compound C-1, Ethyl-3-{(5′-Methylisoxazole-3′-carbonyl)-L-Val-O-L-(4-F-Phe)-L-Gln}-E-Propenoate] | 68400 M⁻¹ s⁻¹ | 0.1 µM | 0.1 µM | – | – | – | – |
| Ethyl-3-((5′-Methylisoxazole-3′-carbonyl)-L-Leu-NCH3-L-Phe-L-Gln)-E-Provenoate [Compound A-10] | – | – | – | – | 108,000 M^−1sec^−1 | 0.14 µM | 0.14 µM |
